What follows are compounds tested against recombinant HCV NS5B (HCV RNA-dependent RNA polymerase) (Hepatitis C virus genotype 1b, UniProt P26663) (assay: biochemical). Details: HCV polymerase activity, list of compounds of Example 27; read-out: IC50 (polymerase activity).
Sequence of recombinant HCV NS5B (HCV RNA-dependent RNA polymerase) (P26663 2420-3010 limits assumed): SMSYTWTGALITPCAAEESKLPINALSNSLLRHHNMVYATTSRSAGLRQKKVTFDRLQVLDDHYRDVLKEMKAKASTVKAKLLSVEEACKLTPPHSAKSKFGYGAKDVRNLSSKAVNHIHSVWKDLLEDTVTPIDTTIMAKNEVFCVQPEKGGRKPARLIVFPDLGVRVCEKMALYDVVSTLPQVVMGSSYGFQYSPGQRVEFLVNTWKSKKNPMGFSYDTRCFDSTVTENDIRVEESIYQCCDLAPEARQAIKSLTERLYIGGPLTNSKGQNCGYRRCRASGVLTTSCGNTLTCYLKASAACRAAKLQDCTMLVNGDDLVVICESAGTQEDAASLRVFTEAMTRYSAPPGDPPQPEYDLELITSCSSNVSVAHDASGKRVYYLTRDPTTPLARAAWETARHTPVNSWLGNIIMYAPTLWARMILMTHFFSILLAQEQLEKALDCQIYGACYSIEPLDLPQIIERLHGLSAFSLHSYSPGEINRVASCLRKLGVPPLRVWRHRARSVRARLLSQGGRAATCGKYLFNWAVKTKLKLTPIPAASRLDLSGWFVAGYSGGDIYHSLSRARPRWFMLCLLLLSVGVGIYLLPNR

| SMILES | IC50 |
| --- | --- |
| CCC(=O)N(Cc1ccccc1)c1cc(-c2ccccc2)sc1C(=O)O [Compound 451, 3-(BENZYL-PROPIONYL-AMINO)-5- PHENYL-THIOPHENE-2-CARBOXYLIC ACID] | < 5 µM |
| COCC(=O)N(Cc1ccccc1)c1cc(-c2ccccc2)sc1C(=O)O [Compound 452, 3-[BENZYL-(2-METHOXY-ACETYL)- AMINO]-5-PHENYL-THIOPHENE-2- CARBOXYLIC ACID] | < 5 µM |
| CC(C)CC(=O)N(Cc1ccccc1)c1cc(-c2ccccc2)sc1C(=O)O [Compound 453, 3-[BENZYL-(3-METHYL-BUTYRYL)- AMINO]-5-PHENYL-THIOPHENE-2- CARBOXYLIC ACID] | < 5 µM |
| O=C(O)c1sc(-c2ccccc2)cc1N(Cc1ccccc1)C(=O)C1CC1 [Compound 454, 3-(BENZYL-CYCLOPROPANECARBONYL- AMINO)-5-PHENYL-THIOPHENE-2- CARBOXYLIC ACID] | < 5 µM |
| CC(=O)N(Cc1ccc(Cl)cc1)c1cc(-c2ccccc2)sc1C(=O)O [Compound 455, 3-[ACETYL-(4-CHLORO-BENZYL)-AMINO]- 5-PHENYL-THIOPHENE-2-CARBOXYLIC ACID] | 5 to 20 µM |
| CCC(=O)N(Cc1ccc(Cl)cc1)c1cc(-c2ccccc2)sc1C(=O)O [Compound 456, 3-[(4-CHLORO-BENZYL)-PROPIONYL- AMINO]-5-PHENYL-THIOPHENE-2- CARBOXYLIC ACID] | < 5 µM |
| CC(C)C(=O)N(Cc1ccc(Cl)cc1)c1cc(-c2ccccc2)sc1C(=O)O [Compound 457, 3-[(4-CHLORO-BENZYL)-ISOBUTYRYL- AMINO]-5-PHENYL-THIOPHENE-2- CARBOXYLIC ACID] | 5 to 20 µM |
| CC(C)CC(=O)N(Cc1ccc(Cl)cc1)c1cc(-c2ccccc2)sc1C(=O)O [Compound 458, 3-[(4-CHLORO-BENZYL)-(3-METHYL- BUTYRYL)-AMINO]-5-PHENYL- THIOPHENE-2-CARBOXYLIC ACID] | 5 to 20 µM |
| O=C(O)c1sc(-c2ccccc2)cc1N(Cc1ccc(Cl)cc1)C(=O)C1CC1 [Compound 459, 3-[(4-CHLORO-BENZYL)- CYCLOPROPANECARBONYL-AMINO]-5- PHENYL-THIOPHENE-2-CARBOXYLIC ACID] | 5 to 20 µM |
| CC(=O)c1ccc(-c2cc(N(C(=O)C3CCC(C)CC3)C(C)C)c(C(=O)O)s2)cc1 (centres unmarked) [Compound 460, 5-(4-ACETYL-PHENYL)-3-[ISOPROPYL-(4- METHYL-CYCLOHEXANECARBONYL)- AMINO]-THIOPHENE-2-CARBOXYLIC ACID] | < 5 µM |
| O=C(O)c1sc(-c2ccccc2)cc1N(Cc1ccc(Cl)cc1)C(=O)C1CCC1 [Compound 461, 3-[(4-CHLORO-BENZYL)- CYCLOBUTANECARBONYL-AMINO]-5- PHENYL-THIOPHENE-2-CARBOXYLIC ACID] | 5 to 20 µM |
| CCCC(=O)N(Cc1ccc(Cl)cc1)c1cc(-c2ccccc2)sc1C(=O)O [Compound 462, 3-[BUTYRYL-(4-CHLORO-BENZYL)- AMINO]-5-PHENYL-THIOPHENE-2- CARBOXYLIC ACID] | 5 to 20 µM |
| O=C(O)c1sc(-c2ccccc2)cc1N(Cc1ccc(Cl)cc1)C(=O)CC1CCCC1 [Compound 463, 3-[(4-CHLORO-BENZYL)-(2- CYCLOPENTYL-ACETYL)-AMINO]-5- PHENYL-THIOPHENE-2-CARBOXYLIC ACID] | < 5 µM |
| CC(=O)N(Cc1ccc(C(F)(F)F)cc1)c1cc(-c2ccccc2)sc1C(=O)O [Compound 464, 3-[ACETYL-(4-TRIFLUOROMETHYL- BENZYL)-AMINO]-5-PHENYL-THIOPHENE- 2-CARBOXYLIC ACID] | 5 to 20 µM |
| Cc1cccc(CN(C(=O)C(C)C)c2cc(-c3ccccc3)sc2C(=O)O)c1 [Compound 465, 3-[ISOBUTYRYL-(3-METHYL-BENZYL)- AMINO]-5-PHENYL-THIOPHENE-2- CARBOXYLIC ACID] | 5 to 20 µM |
| Cc1cccc(CN(C(=O)C2CC2)c2cc(-c3ccccc3)sc2C(=O)O)c1 [Compound 466, 3-[CYCLOPROPANECARBONYL-(3- METHYL-BENZYL)-AMINO]-5-PHENYL- THIOPHENE-2-CARBOXYLIC ACID] | 5 to 20 µM |
| CCC(=O)N(Cc1ccc(C)cc1)c1cc(-c2ccccc2)sc1C(=O)O [Compound 467, 3-[(4-METHYL-BENZYL)-PROPIONYL- AMINO]-5-PHENYL-THIOPHENE-2- CARBOXYLIC ACID] | 5 to 20 µM |
| Cc1ccc(CN(C(=O)C(C)C)c2cc(-c3ccccc3)sc2C(=O)O)cc1 [Compound 468, 3-[ISOBUTYRYL-(4-METHYL-BENZYL)- AMINO]-5-PHENYL-THIOPHENE-2- CARBOXYLIC ACID] | 5 to 20 µM |
| Cc1ccc(CN(C(=O)C2CC2)c2cc(-c3ccccc3)sc2C(=O)O)cc1 [Compound 469, 3-[CYCLOPROPANECARBONYL-(4- METHYL-BENZYL)-AMINO]-5-PHENYL- THIOPHENE-2-CARBOXYLIC ACID] | 5 to 20 µM |
| CCCC(=O)N(Cc1ccc(C)cc1)c1cc(-c2ccccc2)sc1C(=O)O [Compound 470, 3-[BUTYRYL-(4-METHYL-BENZYL)- AMINO]-5-PHENYL-THIOPHENE-2- CARBOXYLIC ACID] | 5 to 20 µM |
| CCC(=O)N(Cc1cccc(OC)c1)c1cc(-c2ccccc2)sc1C(=O)O [Compound 471, 3-[(3-METHOXY-BENZYL)-PROPIONYL- AMINO]-5-PHENYL-THIOPHENE-2- CARBOXYLIC ACID] | > 20 µM |

| SMILES | IC50 |
| --- | --- |
| COc1cccc(CN(C(=O)CC(C)C)c2cc(-c3ccccc3)sc2C(=O)O)c1 [Compound 472, 3-[(3-METHOXY-BENZYL)-(3-METHYL- BUTYRYL)-AMINO]-5-PHENYL- THIOPHENE-2-CARBOXYLIC ACID] | < 5 µM |
| COc1cccc(CN(C(=O)C2CCC2)c2cc(-c3ccccc3)sc2C(=O)O)c1 [Compound 473, 3-[CYCLOBUTANECARBONYL-(3- METHOXY-BENZYL)-AMINO]-5-PHENYL- THIOPHENE-2-CARBOXYLIC ACID] | 5 to 20 µM |
| Cc1ccc(C(=O)N(c2cc(-c3ccccc3)sc2C(=O)O)C(C)C)c(C(N)=O)c1 [Compound 474, 3-[(2-CARBAMOYL-4-METHYL-BENZOYL)- ISOPROPYL-AMINO]-5-PHENYL- THIOPHENE-2-CARBOXYLIC ACID] | 5 to 20 µM |
| CCCC(=O)N(Cc1cccc(OC)c1)c1cc(-c2ccccc2)sc1C(=O)O [Compound 475, 3-[BUTYRYL-(3-METHOXY-BENZYL)- AMINO]-5-PHENYL-THIOPHENE-2- CARBOXYLIC ACID] | 5 to 20 µM |
| CC(=O)N(Cc1cccc(Cl)c1)c1cc(-c2ccccc2)sc1C(=O)O [Compound 476, 3-[ACETYL-(3-CHLORO-BENZYL)-AMINO]- 5-PHENYL-THIOPHENE-2-CARBOXYLIC ACID] | > 20 µM |
| CCC(=O)N(Cc1cccc(Cl)c1)c1cc(-c2ccccc2)sc1C(=O)O [Compound 477, 3-[(3-CHLORO-BENZYL)-PROPIONYL- AMINO]-5-PHENYL-THIOPHENE-2- CARBOXYLIC ACID] | 5 to 20 µM |
| COCC(=O)N(Cc1cccc(Cl)c1)c1cc(-c2ccccc2)sc1C(=O)O [Compound 478, 3-[(3-CHLORO-BENZYL)-(2-METHOXY- ACETYL)-AMINO]-5-PHENYL-THIOPHENE- 2-CARBOXYLIC ACID] | > 20 µM |
| CC(C)CC(=O)N(Cc1cccc(Cl)c1)c1cc(-c2ccccc2)sc1C(=O)O [Compound 479, 3-[(3-CHLORO-BENZYL)-(3-METHYL- BUTYRYL)-AMINO]-5-PHENYL- THIOPHENE-2-CARBOXYLIC ACID] | < 5 µM |
| O=C(O)c1sc(-c2ccccc2)cc1N(Cc1cccc(Cl)c1)C(=O)C1CC1 [Compound 480, 3-[(3-CHLORO-BENZYL)- CYCLOPROPANECARBONYL-AMINO]-5- PHENYL-THIOPHENE-2-CARBOXYLIC ACID] | 5 to 20 µM |
| O=C(O)c1sc(-c2ccccc2)cc1N(Cc1cccc(Cl)c1)C(=O)C1CCC1 [Compound 481, 3-[(3-CHLORO-BENZYL)- CYCLOBUTANECARBONYL-AMINO]-5- PHENYL-THIOPHENE-2-CARBOXYLIC ACID] | 5 to 20 µM |
| CCCC(=O)N(Cc1cccc(Cl)c1)c1cc(-c2ccccc2)sc1C(=O)O [Compound 482, 3-[BUTYRYL-(3-CHLORO-BENZYL)- AMINO]-5-PHENYL-THIOPHENE-2- CARBOXYLIC ACID] | < 5 µM |
| CC(=O)N(Cc1ccc(F)cc1F)c1cc(-c2ccccc2)sc1C(=O)O [Compound 483, 3-[ACETYL-(2,4-DIFLUORO-BENZYL)- AMINO]-5-PHENYL-THIOPHENE-2- CARBOXYLIC ACID] | 5 to 20 µM |
| COCC(=O)N(Cc1ccc(F)cc1F)c1cc(-c2ccccc2)sc1C(=O)O [Compound 484, 3-[(2,4-DIFLUORO-BENZYL)-(2-METHOXY- ACETYL)-AMINO]-5-PHENYL-THIOPHENE- 2-CARBOXYLIC ACID] | 5 to 20 µM |
| CC(C)C(=O)N(Cc1ccc(F)cc1F)c1cc(-c2ccccc2)sc1C(=O)O [Compound 485, 3-[(2,4-DIFLUORO-BENZYL)- ISOBUTYRYL-AMINO]-5-PHENYL- THIOPHENE-2-CARBOXYLIC ACID] | 5 to 20 µM |
| CC(C)CC(=O)N(Cc1ccc(F)cc1F)c1cc(-c2ccccc2)sc1C(=O)O [Compound 486, 3-[(2,4-DIFLUORO-BENZYL)-(3-METHYL- BUTYRYL)-AMINO]-5-PHENYL- THIOPHENE-2-CARBOXYLIC ACID] | 5 to 20 µM |
| O=C(O)c1sc(-c2ccccc2)cc1N(Cc1ccccc1)C(=O)CC1CCCC1 [Compound 487, 3-[BENZYL-(2-CYCLOPENTYL-ACETYL)- AMINO]-5-PHENYL-THIOPHENE-2- CARBOXYLIC ACID] | < 5 µM |
| CC(C)N(C(=O)c1ccc(Cl)cc1Cl)c1cc(-c2ccc3[nH]ccc3c2)sc1C(=O)O [Compound 488, 3-[(2,4-DICHLORO-BENZOYL)- ISOPROPYL-AMINO]-5-(1H-INDOL-5-YL)- THIOPHENE-2-CARBOXYLIC ACID] | < 5 µM |
| O=C(O)c1sc(-c2ccccc2)cc1N(Cc1ccccc1)C(=O)C1CCC1 [Compound 489, 3-(BENZYL-CYCLOBUTANECARBONYL- AMINO)-5-PHENYL-THIOPHENE-2- CARBOXYLIC ACID] | < 5 µM |
| O=C(O)c1sc(-c2ccccc2)cc1N(Cc1ccc(F)cc1F)C(=O)C1CCCCC1 [Compound 490, 3-[CYCLOHEXANECARBONYL-(2,4- DIFLUORO-BENZYL)-AMINO]-5-PHENYL- THIOPHENE-2-CARBOXYLIC ACID] | < 5 µM |
| C=CCN(C(=O)Cc1ccc(OC)cc1)c1cc(-c2ccccc2)sc1C(=O)O [Compound 491, 3-{ALLYL-[2-(4-METHOXY-PHENYL)- ACETYL]-AMINO}-5-PHENYL-THIOPHENE- 2-CARBOXYLIC ACID] | > 20 µM |

— patent publication US6881741B2 (ViroChem Pharma Inc., priority 2001, dated 2005)
